Key:
[1] = test system: vasculature and cell cycle genes; experiment: RT-qPCR of vasculature and cell cycle gene expression in ECs on TCP; assay type: cell-based, human; conditions: normalized to control
Source text: (§1) (D) Top 10 (TPM>100, top 10 fold change) vasculature (TPM>100, Top 10 fold change) (AmiGO, GO:0001944) and cell cycle genes (AmiGO, GO:0007049) from RNA-seq. Full gene list of vasculature and cell cycle was generated by Amigo. […] Data was normalized to DMSO control (not shown). […] Data was normalized to NT control. ERK2i, siRNA of ERK2. NT, non-targeting.
(§2) We investigated a potential role for ERK signaling on cell cycle gene expression for ECs cultured on TCP surfaces since ERK regulates EC functions that include proliferation, blood vessel morphogenesis, and mechanotransduction^34,35,43-46. […] We further investigated the role for ERK activity in regulating the shift to a proliferative phenotype by comparing the top 10 enriched cycle genes from 2D culture and vascular development genes from 3D culture (Day 3) for ECs on TCP after pERK inhibition (FIGS. 3b-d).

ERK = experiment: Western blot of ERK activity (pERK) in endothelial cells in 2D culture; assay type: cell-based, human; conditions: ECs on TCP (2D culture)
Source text: as §1, §2

endothelial cells (ECs) = assay type: cell-based; conditions: ECs on TCP (2D culture)
Source text: as §1

N#CC(=C(/N)Sc1ccccc1N)/C(C#N)=C(\N)Sc1ccccc1N [U0126]
cell cycle gene expression (top 10 genes, RT-qPCR) [1]: 10 of 10 genes downregulated
vasculature (vascular development) gene expression (top 10 genes, RT-qPCR) [1]: 8 of 10 genes upregulated
ERK activity (Western blot) (ERK): decreased ERK activity
EC proliferation (endothelial cells (ECs)): decreased EC proliferation

Reference: patent US11220672B2, “Human pluripotent stem cell-based system for generating endothelial cells” (Wisconsin Alumni Research Foundation, priority 2014, dated 2022)
